Experimental data reported in paper PMC3942691, “The Dipeptide Monoester Prodrugs of Floxuridine and Gemcitabine—Feasibility of Orally Administrable Nucleoside Analogs” (Pharmaceuticals, 2014).

Legend:
Panc-1 cells = assay: Uptake study in Panc-1 cells; type: cell-based; details: 0.1 mM, 1 h
Procedure: (§1) Caco-2, Panc-1, and AsPC-1 cells were grown on a 6-well plate for 18, 6, and 6 days, respectively. Wells were rinsed with MES (pH 6.0) buffer twice. Fresh MES buffer was reapplied to each well and incubated at 37 °C for 15 min. Each drug was individually tested from freshly prepared solutions in MES buffer (0.1 mM, total 0.3 mL) with the presence and the absence of 10 mM glycyl-proline (Gly-Pro). The solution was placed in each well and incubated at 37 °C for 60 min. Drug solution was removed and 3 mL of ice-cold PBS was immediately placed in each well. Each well was rinsed with 3 mL of cold-PBS twice and 0.5 mL of methanol/H2O (1:1) containing 0.1% TFA was placed in each well. The cell suspension was collected and transferred to a new tube. Those tubes were spun at 1,000 × g at 4 °C for 5 min. The supernatant was mixed with equal amount of water with either 0.1% formic acid or 0.1% ammonium hydroxide for LC-MS analysis. The cell pullets were used to determine protein amount with the Bio-Rad DC Protein Assay using bovine serum albumin as a standard.
(§2) The LC-MS analytical method of 5′-mono amino acid ester prodrugs of floxuridine has been reported previously. The LC-MS analysis of dipeptide monoester prodrugs of floxuridine and gemcitabine along with their parent drugs was modified and performed in a similar manner. Briefly, LC-MS analysis of the uptake drug amount was performed in triplicate on LCMS-2010EV (Shimadzu Scientific Instruments, Kyoto, Japan) equipped with an ESI (electrospray ionization) source. The Shimadzu LC-MS system consisting of Shimadzu LC-20AD pumps with DGU-20A in-line vacuum degasser units, and SIL-20A HT autosampler with an InertSustain C-18, 2.1 × 50 mm, 3 µm particle size, (GL Sciences, Torrance, CA, USA) was used for the separation and the effluent from the column was introduced directly to the ionization source. The system was controlled by Shimadzu LCMS solution software (version 3) to collect and process data. All samples were run with Solvent A and Solvent B with Solvent B gradient changing from 0%–90% at a rate of 13.8%/min over a 22 min run. The mobile phase consisted of 0.1% TFA/water (Solvent A) and 0.1% TFA/acetonitrile (Solvent B) for gemcitabine, gemcitabine prodrug and floxuridine prodrug. The mobile phase consisted of 0.1% ammonium hydroxide/water (Solvent A) and 0.1% ammonium hydroxide /acetonitrile (Solvent B) for floxuridine. The ESI probe was operated with a detector voltage of 1.5 kV, CDL temperature of 250 °C, heat block of 200 °C, and nebulizing gas flow of 1.2 mL/min in positive mode for gemcitabine prodrugs and their metabolites. The drying gas was N2 delivered at 0.1 MPa.

AsPC-1 cells = assay: Uptake study in AsPC-1 cells; type: cell-based; details: 0.1 mM, 1 h
Procedure: as §1
as §2, with “The mobile phase consisted of 0.1% TFA/water (Solvent A) and 0.1% TFA/acetonitrile (Solvent B) for gemcitabine, gemcitabine prodrug and floxuridine prodrug. The mobile phase consisted of 0.1% ammonium hydroxide/water (Solvent A) and 0.1% ammonium hydroxide /acetonitrile (Solvent B) for floxuridine. The ESI probe was operated with a detector voltage of 1.5 kV, CDL temperature of 250 °C, heat block of 200 °C, and nebulizing gas flow of 1.2 mL/min in positive mode for gemcitabine prodrugs and their metabolites. The drying gas was N2 delivered at 0.1 MPa.” left out

[1] = Drug concentration and species in mouse plasma after in situ perfusion; type: in vivo; details: for parent drug, share of totally observed amount in plasma: parent drug perfused; for parent drug, share of totally observed amount in plasma / first metabolite (5-FU or cytosine) in plasma: mouse plasma after in situ perfusion; for prodrug form, share of totally observed amount in plasma: mouse plasma at 2 h following in situ perfusion
Procedure: All animal experiments were conducted using protocols approved by the University of Michigan Committee of Use and Care of Animals (UCUCA). Female BALB/c mice (Charles River, IN, USA) weighing 20–25 g were used for all perfusion studies. Prior to each experiment, mice were fasted overnight with free access to water.
At the start of the study, the test compound (100 µM) in perfusion buffer (pH 6.0) including phenol red was perfused through the intestinal segment (Watson-Marlow Pump 323S, Watson-Marlow Bredel Inc., Wilimington, MA, USA), at the flow rate of 0.1 mL/min. The perfusion buffer was perfused for 30 min to assure steady-state and samples were taken in every 10 min for 90 min. At the end of perfusion, blood samples were collected by cardiac puncture. Blood samples with heparin were centrifuged at 1,000 × g for 10 min at 4 °C to collect plasma samples for LC-MS analysis. Following the termination of the experiment, the length of each perfused intestinal segment was measured.
as §2

[2] = Enzymatic stability in Panc-1 cell homogenates; type: in vitro ADME; details: human, Panc-1 cell homogenates, pH 7.4; 500 µg/mL protein, 37 °C; read-out: Panc-1 cell homogenates t1/2
Procedure: Confluent Caco-2, Panc-1, and AsPC-1cells were rinsed twice with phosphate buffered saline (PBS). The cells were lysed with phosphate buffer (pH 7.4) by ultrasonication (Micro ultrasonic cell disrupter Model KT40, Kontes, Vineland, NJ, USA), and pelleted by centrifugation for 5 min at 1,000 × g. Protein amount was quantified with the Bio-Rad (Hercules, CA, USA) DC Protein Assay using bovine serum albumin as a standard. The amount of protein was adjusted to 500 µg/mL and hydrolysis reactions were carried out in 96-well plates (Corning). Caco-2, Panc-1, and AsPC-1 cell suspensions (250 µL) were placed in triplicate wells, the reactions were started with the addition of substrate, and cells were incubated at 37 °C for 120 min. At the desired time point, sample aliquots (35 µL) were removed and added to acetonitrile (ACN, 150 µL) with 0.1% TFA. The mixtures were filtered with a 0.45 µm filters at 1,000 × g for 10 min at 4 °C. The filtrate was then analyzed via reverse-phase HPLC.
The stability samples of prodrugs and their metabolites, and perfusion samples were determined on an Agilent HPLC system (Agilent Technologies, Santa Clara, CA, USA). The HPLC system consisted of Agilent pumps (1100 series), an Agilent autosampler (1200 series), and an Agilent UV-Vis detector (1100 series) controlled by Chemstation® 32 software (version B.01.03). Samples were resolved in an Agilent Eclipse Plus C18 reverse-phase column (3.5 µm, 4.6 × 75 mm) equipped with a guard column. The mobile phase consisted of 0.1% TFA/water (Solvent A) and 0.1% TFA/acetonitrile (Solvent B) with the solvent B gradient changing from 0%–56% at a rate of […] during a 15 min run for gemcitabine and gemcitabine prodrugs. Standard curves generated for each prodrug and their parent drug were utilized for quantitation of integrated area under peaks. The detection wavelength was 254 nm and spectra were acquired in the 220–380 nm wavelength range. The detection wavelength for phenol red was 430 nm.
The experiments concerning drug and their prodrug stability were performed at 37 °C in 0.01 N HCl, SIF (pH 6.0), and pH 7.4 phosphate buffer. […] Prodrug metabolites such as floxuridine, 5-fluorouracil (5-FU), gemcitabine, 2′-deoxy-2′,2′-difluorouridine, uracil, and cytosine were monitored along with prodrug disappearance in this experiment.

| Molecule | Parent drug, share of uptake (Panc-1 cells) [%] | Parent drug, share of uptake (AsPC-1 cells) [%] | parent drug, share of totally observed amount in plasma [1] | Prodrug, share of uptake (Panc-1 cells) [%] | half-life [2] [min] | Prodrug, share of uptake (AsPC-1 cells) [%] | drug concentration in mouse plasma, rank among tested compounds ([1]; after in situ perfusion) | first metabolite (5-FU or cytosine) in plasma [1] | prodrug form, share of totally observed amount in plasma [1] [%] | uptake amount (Panc-1 cells) |
| --- | --- | --- | --- | --- | --- | --- | --- | --- | --- | --- |
| 2′,2′-difluoro-2′-deoxyuridine [Gemcitabine] | 20 | 90 | 83% |  |  |  |  |  |  |  |
| NC(Cc1ccccc1)C(=O)NC(Cc1ccc(O)cc1)C(=O)OCC1OC(n2cc(F)c(=O)[nH]c2=O)CC1O [5′-L-Phenylalanyl-L-tyrosyl-floxuridine] |  |  |  | 98 | 40.4 ± 0.2 | 60 | highest drug concentration | not observed | 81 |  |
| Nc1ccn(C2OC(COC(=O)C(Cc3ccc(O)cc3)NC(=O)C(N)Cc3ccccc3)C(O)C2(F)F)c(=O)n1 [5′-L-Phenylalanyl-L-tyrosyl-gemcitabine] |  |  |  | 9 | 30.2 ± 1.1 | 39 |  | one-third | 40 |  |
| O=c1[nH]c(=O)n([C@H]2C[C@H](O)[C@@H](CO)O2)cc1F [Floxuridine, 5-fluoro-2′-deoxyuridine] |  |  | only drug observed |  | 41.7 ± 6.8 |  |  |  |  | not observed |
